According to US20030134264A1, “Method of preventing darkening of skin or inhibiting melanization of melenin monomer and polymerization inhibitor of biological dihydroxyindole compound” (SHISEIDO COMPANY, LTD., priority 2001, published 2003):

Experiment: Inhibition of melanization of DHICA by ultraviolet rays (absorbance at 405 nm, microplate)
Details: FL-20BLB fluorescent lamp, long wavelength UV, absorbance 405 nm
Method: DHICA can be synthesized by a known method. 0.01 to 1.0 mg/ml of DHICA or its sodium salt is dissolved in water or a buffer such as phosphate buffer and 100 to 200 μl amounts distributed into microplate wells. A fluorescent lamp or solar simulator or monochrometer is used to irradiate this with ultraviolet rays for 10 minutes to 3 hours, then the absorbance at 405 nm is measured by a microplate reader to evaluate the amount of black-brown melanin.
0.01 to 1.0 mg/ml of DHICA or its sodium salt is dissolved in water or a buffer such as a phosphate buffer and 100 to 200 μl amounts distributed into microplate wells. Compounds or plant extracts prepared at various concentrations are added in 1 to 100 μl amounts or before addition a fluorescent lamp or solar simulator or monochrometer is used to irradiate this with ultraviolet rays for 10 minutes to 3 hours, then the absorbance of 405 nm is measured by a microplate reader to evaluate the extent of black-brown melanin and evaluate the effect of the compound or plant extract.
The action of an inhibitor containing vitamin C and its derivatives as effective ingredients in inhibiting melanization of DHICA due to ultraviolet rays was evaluated by the following effect of inhibition of melanization of DHICA due to ultraviolet rays.
(§1) 0.01 to 1.0 mg/ml of DHICA or its sodium salt is dissolved in water and 100 μl amounts distributed into microplate wells. 100 μl of ascorbic acid or its derivative adjusted to various concentrations was added and an FL-20BLB fluorescent lamp used to irradiate long wavelength ultraviolet rays. The absorbance at 405 nm was measured by a microplate reader to evaluate the amount of black-brown melanin and evaluate the effect of the compound.
as §1, with “The action of an inhibitor containing 3-O-ethyl ascorbic acid as effective ingredients in inhibiting melanization of DHICA due to ultraviolet rays was evaluated by the following effect of inhibition of melanization of DHICA due to ultraviolet rays. 0.01” for “0.01”, “the extent” for “the amount”

SMILES	Rate of inhibition of UV-introduced melanization of DHICA (%) (sample concentration 0.1%)	Rate of suppression of UV-induced melanization of DHICA (%) (sample concentration 0.1%)	Rate of inhibition of UV-introduced melanization of DHICA (%) (sample concentration 0.01%)	Rate of suppression of UV-induced melanization of DHICA (%) (sample concentration 0.01%)
O=C1O[C@H]([C@@H](O)CO)C(O)=C1O[C@H]1O[C@H](CO)[C@@H](O)[C@H](O)[C@H]1O [AA-2G, Ascorbate-2-O-α-glucoside]	20	20		
O=C1O[C@H]([C@@H](O)CO)C(O)=C1O [Ascorbic acid]	70	70		
CCOC1=C(O)C(=O)O[C@@H]1[C@@H](O)CO [3-O-ethyl ascorbic acid]	80	80	40	40
O=C1O[C@H]([C@@H](O)CO)C([O-])=C1OP(=O)([O-])[O-].O=C1O[C@H]([C@@H](O)CO)C([O-])=C1OP(=O)([O-])[O-].[Mg+2].[Mg+2].[Mg+2] [APM, Magnesium ascorbate phosphate ester]	20			
